Experiment [1] has as its target biotinylated human Gal-3 (hGal-3) (Homo sapiens, UniProt P17931). In words: Competitive binding assay: biotinylated hGal-3 binding to microplate-adsorbed asialofetuin (ASF), spectrophotometric. In outline:
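Serially diluted compounds competed with asialofetuin on the plate for biotinylated human Gal-3 during a 3 h incubation at 4° C. Streptavidin-peroxidase with ABTS gave the spectrophotometric signal. IC50 values were averaged over repeat runs.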

For a further experiment, the target named is human Gal-1 (hGal-1) (Homo sapiens, UniProt P09382). Briefly: Competitive binding assay: biotinylated hGal-1 binding to microplate-adsorbed asialofetuin (ASF), spectrophotometric. To be noted: hGal-1 binding to asialofetuin; Table 15; R and S epimers of selected Examples also listed; read-out: IC50 (Galectin-1 inhibition). The method, boiled down:
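Spectrophotometric competition readout with ABTS after streptavidin-peroxidase (80 ng/mL, 1 h, 4 °C) detection of bound biotinylated hGal-1.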

Where [2] appears, read: Gal-3 inhibition, Table 5, read-out: IC50.
The mark [3] stands for this setting: Table 10, hGal-3, read-out: IC50 (Gal-3 inhibition).
Setting [4] is: Table 9, hGal-3, read-out: IC50 (Gal-3 inhibition).
[5] abbreviates: Table 12, hGal-3, read-out: IC50 (Gal-3 inhibition).

As usually defined, the IC50 is the concentration that inhibits the measured activity by half.

The structures appear in SMILES notation. Where two headings read alike, the source gives them in different places.

Chain of biotinylated human Gal-3 (hGal-3) (P17931 whole entry): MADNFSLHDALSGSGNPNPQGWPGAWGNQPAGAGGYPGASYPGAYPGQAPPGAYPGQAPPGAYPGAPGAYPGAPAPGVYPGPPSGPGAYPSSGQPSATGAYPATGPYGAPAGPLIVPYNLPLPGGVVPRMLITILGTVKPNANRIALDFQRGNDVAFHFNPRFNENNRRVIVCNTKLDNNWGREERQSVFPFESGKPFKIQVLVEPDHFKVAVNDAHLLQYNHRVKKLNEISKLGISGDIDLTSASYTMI
Chain of human Gal-1 (hGal-1) (P09382 whole entry): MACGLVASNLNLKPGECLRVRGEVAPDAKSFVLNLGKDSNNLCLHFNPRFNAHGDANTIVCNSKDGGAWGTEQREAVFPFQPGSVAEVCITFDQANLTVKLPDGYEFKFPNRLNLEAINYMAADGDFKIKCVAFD

For `CN(CC(F)(F)F)C(=O)C(S[C@@H]1O[C@H](CO)[C@H](O)[C@H](n2cc(-c3cc(F)c(F)c(F)c3)nn2)[C@H]1O)C1(O)CCOCC1` (stereo partly drawn) [Example 2.41.219., 2-(((2S,3R,4S,5R,6R)-3,5-Dihydroxy-6-(hydroxymethyl)-4-(4-(3,4,5-trifluorophenyl)-1H-1,2,3-triazol-1-yl)tetrahydro-2H-pyran-2-yl)thio)-2-(4-hydroxytetrahydro-2H-pyran-4-yl)-N-methyl-N-(2,2,2-trifluoroethyl)acetamide], the values for the concentration for half-maximal inhibition (IC50) (in experiment [1] (setting [2]); on human Gal-1 (hGal-1)) were 110 nM and 210 nM, respectively.
As for `CN(C(=O)C(S[C@@H]1O[C@H](CO)[C@H](O)[C@H](n2cc(-c3cc(F)c(F)c(F)c3)nn2)[C@H]1O)C1(O)CCOCC1)C1CCC1` (some centres unmarked) [Example 2.41.220.], the 50% inhibitory concentration (IC50) in experiment [1] (setting [3]) was 50 nM; at human Gal-1 (hGal-1), 30 nM.
`CN(C(=O)C(S[C@@H]1O[C@H](CO)[C@H](O)[C@H](n2cc(-c3cc(F)c(F)c(F)c3)nn2)[C@H]1O)C1(O)CCOCC1)c1ccccc1` (some centres unmarked) [Example 2.41.231.]: the IC50 in experiment [1] (setting [4]) was determined as 110 nM; on human Gal-1 (hGal-1), 80 nM.
For `CN(C(=O)[C@H](S[C@@H]1O[C@H](CO)[C@H](O)[C@H](n2cc(-c3cc(F)c(F)c(F)c3)nn2)[C@H]1O)C1(O)CCOCC1)c1ccccc1` [Example 2.41.231R.], in that order: 3440 nM and 8260 nM.
For the compound `CN(C(=O)[C@@H](S[C@@H]1O[C@H](CO)[C@H](O)[C@H](n2cc(-c3cc(F)c(F)c(F)c3)nn2)[C@H]1O)C1(O)CCOCC1)c1ccccc1` [Example 2.41.231S.], the IC50 came out at 70 nM in experiment [1] (setting [4]) and 50 nM at human Gal-1 (hGal-1).
Consider `CCN(C(=O)C(S[C@@H]1O[C@H](CO)[C@H](O)[C@H](n2cc(-c3cc(F)c(F)c(F)c3)nn2)[C@H]1O)C1(O)CCOCC1)c1ccccc1` (stereo partly drawn) [Example 2.41.232., 2-(((2S,3R,4S,5R,6R)-3,5-Dihydroxy-6-(hydroxymethyl)-4-(4-(3,4,5-trifluorophenyl)-1H-1,2,3-triazol-1-yl)tetrahydro-2H-pyran-2-yl)thio)-N-ethyl-2-(4-hydroxytetrahydro-2H-pyran-4-yl)-N-phenylacetamide], for which the half-inhibitory concentration (IC50) in experiment [1] (setting [4]) turned out to be 90 nM; on human Gal-1 (hGal-1), 60 nM.
In the case of `CO[C@@H]1[C@@H](n2cc(-c3cc(F)c(F)c(F)c3)nn2)[C@@H](O)[C@@H](CO)O[C@H]1S[C@@H](C(=O)N(C)c1ccccn1)C1(O)CCC(F)(F)CC1` [Example 2.41.233R.I.], the concentration for half-maximal inhibition (IC50) in experiment [1] (setting [4]) was determined as 7240 nM; at human Gal-1 (hGal-1), 7100 nM.
`CN(C(=O)[C@H](S[C@@H]1O[C@H](CO)[C@H](O)[C@H](n2cc(-c3cc(F)c(F)c(F)c3)nn2)[C@H]1O)C1(O)CCOCC1)c1ccccn1` [Example 2.41.233R.]: the IC50 in experiment [1] (setting [4]) turned out to be 8500 nM; on human Gal-1 (hGal-1), 9800 nM.
With `CO[C@@H]1[C@@H](n2cc(-c3cc(F)c(F)c(F)c3)nn2)[C@@H](O)[C@@H](CO)O[C@H]1S[C@H](C(=O)N(C)c1ccccn1)C1(O)CCC(F)(F)CC1` [Example 2.41.233S.I.], the results for the concentration for half-maximal inhibition (IC50) (in experiment [1] (setting [4]); on human Gal-1 (hGal-1)) were 50 nM and 30 nM, respectively.
Regarding `CN(C(=O)[C@@H](S[C@@H]1O[C@H](CO)[C@H](O)[C@H](n2cc(-c3cc(F)c(F)c(F)c3)nn2)[C@H]1O)C1(O)CCOCC1)c1ccccn1` [Example 2.41.233S.], the values for the 50% inhibitory concentration (IC50) (in experiment [1] (setting [4]); at human Gal-1 (hGal-1)) were 40 nM and 30 nM, respectively.
As to `CN(C(=O)[C@H](S[C@@H]1O[C@H](CO)[C@H](O)[C@H](n2cc(-c3cc(F)c(F)c(F)c3)nn2)[C@H]1O)C1(O)CCOCC1)c1cccnc1` [Example 2.41.234R], the values for the IC50 (in experiment [1] (setting [4]); on human Gal-1 (hGal-1)) were 7800 nM and 10900 nM, respectively.
As to `CN(C(=O)[C@@H](S[C@@H]1O[C@H](CO)[C@H](O)[C@H](n2cc(-c3cc(F)c(F)c(F)c3)nn2)[C@H]1O)C1(O)CCOCC1)c1cccnc1` [Example 2.41.234S.], the IC50 (in experiment [1] (setting [4]); at human Gal-1 (hGal-1)) was 100 nM each time.
Consider `CN(C(=O)C(S[C@@H]1O[C@H](CO)[C@H](O)[C@H](n2cc(-c3cc(F)c(F)c(F)c3)nn2)[C@H]1O)C1(O)CCOCC1)C1COC1` (stereo partly drawn) [Example 2.41.235., 2-(((2S,3R,4S,5R,6R)-3,5-Dihydroxy-6-(hydroxymethyl)-4-(4-(3,4,5-trifluorophenyl)-1H-1,2,3-triazol-1-yl)tetrahydro-2H-pyran-2-yl)thio)-2-(4-hydroxytetrahydro-2H-pyran-4-yl)-N-methyl-N-(oxetan-3-yl)acetamide], for which the IC50 in experiment [1] (setting [2]) turned out to be 60 nM; at human Gal-1 (hGal-1), 90 nM.
For `CN(C(=O)[C@H](S[C@@H]1O[C@H](CO)[C@H](O)[C@H](n2cc(-c3cc(F)c(F)c(F)c3)nn2)[C@H]1O)C1(O)CCOCC1)C1COC1` [Example 2.41.235R., (R)-2-(((2S,3R,4S,5R,6R)-3,5-Dihydroxy-6-(hydroxymethyl)-4-(4-(3,4,5-trifluorophenyl)-1H-1,2,3-triazol-1-yl)tetrahydro-2H-pyran-2-yl)thio)-2-(4-hydroxytetrahydro-2H-pyran-4-yl)-N-methyl-N-(oxetan-3-yl)acetamide], in that order: 2400 nM and 6540 nM.
For `CN(C(=O)[C@@H](S[C@@H]1O[C@H](CO)[C@H](O)[C@H](n2cc(-c3cc(F)c(F)c(F)c3)nn2)[C@H]1O)C1(O)CCOCC1)C1COC1` [Example 2.41.235S., (S)-2-(((2S,3R,4S,5R,6R)-3,5-Dihydroxy-6-(hydroxymethyl)-4-(4-(3,4,5-trifluorophenyl)-1H-1,2,3-triazol-1-yl)tetrahydro-2H-pyran-2-yl)thio)-2-(4-hydroxytetrahydro-2H-pyran-4-yl)-N-methyl-N-(oxetan-3-yl)acetamide], in that order: 40 nM and 90 nM.
The matching figures for `CCN(CC1CC1)C(=O)C(S[C@@H]1O[C@H](CO)[C@H](O)[C@H](n2cc(-c3cc(F)c(F)c(F)c3)nn2)[C@H]1O)C1(O)CCOCC1` (stereo partly drawn) [Example 2.41.236., N-(Cyclopropylmethyl)-2-(((2S,3R,4S,5R,6R)-3,5-dihydroxy-6-(hydroxymethyl)-4-(4-(3,4,5-trifluorophenyl)-1H-1,2,3-triazol-1-yl)tetrahydro-2H-pyran-2-yl)thio)-N-ethyl-2-(4-hydroxytetrahydro-2H-pyran-4-yl)acetamide]: 4470 nM and 9900 nM.
Regarding `CCN(C(=O)C(S[C@@H]1O[C@H](CO)[C@H](O)[C@H](n2cc(-c3cc(F)c(F)c(F)c3)nn2)[C@H]1O)C1(O)CCOCC1)C1CCC1` (some centres unmarked) [Example 2.41.237.], the figures for the half-maximal inhibitory concentration (IC50) (in experiment [1] (setting [3]); at human Gal-1 (hGal-1)) were 30 nM and 20 nM, respectively.
In the case of `CO[C@@H]1[C@@H](n2cc(-c3cc(F)c(F)c(F)c3)nn2)[C@@H](O)[C@@H](CO)O[C@H]1SC(C(=O)N(C)C)C1(O)CCC(F)(F)CC1` (stereo partly drawn) [Example 2.44.201.I., 2-(4,4-Difluoro-1-hydroxycyclohexyl)-2-(((2S,3R,4S,5R,6R)-5-hydroxy-6-(hydroxymethyl)-3-methoxy-4-(4-(3,4,5-trifluorophenyl)-1H-1,2,3-triazol-1-yl)tetrahydro-2H-pyran-2-yl)thio)-N,N-dimethylacetamide], the values for the concentration for half-maximal inhibition (IC50) (in experiment [1] (setting [5]); on human Gal-1 (hGal-1)) were 60 nM and 250 nM, respectively.
Consider `CCN(C)C(=O)C(S[C@@H]1O[C@H](CO)[C@H](O)[C@H](n2cc(-c3cc(F)c(F)c(F)c3)nn2)[C@H]1OC)C1(O)CCC(F)(F)CC1` (stereo partly drawn) [Example 2.44.203.I., 2-(4,4-Difluoro-1-hydroxycyclohexyl)-N-ethyl-2-(((2S,3R,4S,5R,6R)-5-hydroxy-6-(hydroxymethyl)-3-methoxy-4-(4-(3,4,5-trifluorophenyl)-1H-1,2,3-triazol-1-yl)tetrahydro-2H-pyran-2-yl)thio)-N-methylacetamide], for which the IC50 in experiment [1] (setting [5]) came to 40 nM; on human Gal-1 (hGal-1), 120 nM.

For the origin of these results see patent US12410208B2, “(2-acetamidyl)thio-beta-D-galactopyranoside derivatives” (Idorsia Pharmaceuticals Ltd, priority 2020, dated 2025).
